# Measured values from publication PMC8320619 (Current Research in Toxicology, 2020).
# Target: T1, multidrug resistance associated protein 4 (MRP4) (Homo sapiens, UniProt O15439)
# T1 sequence (O15439 1-1325): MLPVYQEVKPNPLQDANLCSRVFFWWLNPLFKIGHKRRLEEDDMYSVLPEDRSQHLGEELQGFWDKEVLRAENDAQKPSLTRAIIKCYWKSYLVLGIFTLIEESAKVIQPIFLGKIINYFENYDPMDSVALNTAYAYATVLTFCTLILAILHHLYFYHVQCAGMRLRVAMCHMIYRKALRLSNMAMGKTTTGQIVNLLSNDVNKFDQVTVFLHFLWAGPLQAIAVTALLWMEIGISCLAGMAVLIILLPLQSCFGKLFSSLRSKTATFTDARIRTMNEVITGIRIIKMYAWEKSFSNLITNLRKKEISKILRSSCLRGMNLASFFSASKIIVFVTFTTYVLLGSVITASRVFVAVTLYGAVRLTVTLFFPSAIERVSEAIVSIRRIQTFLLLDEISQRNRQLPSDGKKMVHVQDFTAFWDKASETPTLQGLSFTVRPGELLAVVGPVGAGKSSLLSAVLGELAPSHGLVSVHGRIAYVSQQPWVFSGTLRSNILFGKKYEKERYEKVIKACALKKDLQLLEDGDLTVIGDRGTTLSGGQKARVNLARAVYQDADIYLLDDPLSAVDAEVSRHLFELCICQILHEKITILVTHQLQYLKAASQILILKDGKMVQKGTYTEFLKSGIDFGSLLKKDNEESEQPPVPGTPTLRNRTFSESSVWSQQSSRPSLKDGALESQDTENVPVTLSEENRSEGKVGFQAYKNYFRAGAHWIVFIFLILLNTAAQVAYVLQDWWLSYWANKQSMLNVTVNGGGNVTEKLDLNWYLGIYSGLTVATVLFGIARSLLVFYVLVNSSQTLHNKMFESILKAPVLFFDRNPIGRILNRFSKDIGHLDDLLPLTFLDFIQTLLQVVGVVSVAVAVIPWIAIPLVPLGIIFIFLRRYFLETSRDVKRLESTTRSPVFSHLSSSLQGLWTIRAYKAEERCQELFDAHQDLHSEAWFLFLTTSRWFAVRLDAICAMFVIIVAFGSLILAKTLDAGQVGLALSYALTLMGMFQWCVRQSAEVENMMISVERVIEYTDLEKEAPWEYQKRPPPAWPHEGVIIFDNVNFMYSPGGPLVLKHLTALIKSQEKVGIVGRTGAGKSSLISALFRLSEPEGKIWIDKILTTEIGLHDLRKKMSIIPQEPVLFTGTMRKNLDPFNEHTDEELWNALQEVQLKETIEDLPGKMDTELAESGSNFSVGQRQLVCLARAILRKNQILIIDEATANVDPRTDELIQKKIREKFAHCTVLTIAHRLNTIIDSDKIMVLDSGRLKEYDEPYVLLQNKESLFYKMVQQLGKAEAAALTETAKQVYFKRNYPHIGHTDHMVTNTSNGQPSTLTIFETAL
# Type: biochemical
smiles,measurement,value
"CC(=O)Nc1ccc(O)c(SC[C@H](N)C(=O)O)c1 [APAP-CYS, acetaminophen cysteine]",IC50,125 µM
